Results from patent US11236106B2, “Cycloalkane-1,3-diamine derivative” (Daiichi Sankyo Company, Limited, priority 2018, dated 2022).
pIC50: −log10 of the molar value. Counter-ions that a name gives are not always drawn. Like-named read-outs stand apart in the source and are kept apart here. Values belong to the compound of their own block, whether it stands above or below them.

Legend:
MV-4-11 cells [1] = details: read-out: GI50, cell growth inhibitory activity, MV-4-11, day 7, cultured 7 days, assigned by order and values, Hydrochloride
[2] = biological target: T1, menin and MLL (menin, Flag tagged; biotinylated MLL1 peptide 1-46aa) (Homo sapiens, UniProt O00255); test: biochemical; details: AlphaLISA, 1 nM menin, 10 nM biotinylated MLL1 peptide; for pIC50: IC50, binding inhibitory activity between menin and MLL
T1 sequence (O00255 1-610): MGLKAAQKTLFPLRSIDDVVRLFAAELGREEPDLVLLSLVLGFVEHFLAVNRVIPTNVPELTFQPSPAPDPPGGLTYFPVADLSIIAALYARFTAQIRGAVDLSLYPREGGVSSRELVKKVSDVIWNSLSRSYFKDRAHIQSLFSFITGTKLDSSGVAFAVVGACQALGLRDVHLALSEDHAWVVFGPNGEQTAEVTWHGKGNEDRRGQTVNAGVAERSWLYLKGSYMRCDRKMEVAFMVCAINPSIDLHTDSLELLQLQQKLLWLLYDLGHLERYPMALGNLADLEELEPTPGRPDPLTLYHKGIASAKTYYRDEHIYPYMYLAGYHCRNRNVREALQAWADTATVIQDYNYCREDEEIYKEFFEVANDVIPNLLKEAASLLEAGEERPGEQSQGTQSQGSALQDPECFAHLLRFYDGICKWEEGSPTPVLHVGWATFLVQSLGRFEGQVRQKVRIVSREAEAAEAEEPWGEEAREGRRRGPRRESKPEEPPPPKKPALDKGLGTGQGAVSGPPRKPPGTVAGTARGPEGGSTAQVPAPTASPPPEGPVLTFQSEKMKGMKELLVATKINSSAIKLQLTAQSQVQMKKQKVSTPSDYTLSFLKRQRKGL

K562 cells [3] = test: cells; details: Homo sapiens, K562, 168 h, read-out: GI50, cell growth inhibitory activity, K562, day 7
K562 cells [4] = details: read-out: GI50, cell growth inhibitory activity, K562, day 7, cultured 7 days, assigned by order and values
[5] = tested on: MLL-AF9-overexpressing AML-like cells (MA9 cells); test: Differentiation-inducing activity in MLL-AF9-overexpressing AML-like cells (flow cytometry of Gr-1 and cKit); assay type: cell-based, mouse; details: 7 days, 5 or 20 nM (Ex. 25, 27), 150 or 300 nM (Ex. 26), 50 or 100 nM (Ex. 22)
Method: The human MLL-AF9 fusion gene was introduced into cKit-positive mononuclear cells isolated from the myeloid of C57BL6 mouse, by retrovirus infection. MLL-AF9-overexpressing AML-like cells (MA9 cells) that acquired abnormal growth ability were established by liquid-culturing the cells after virus infection for a long period of time. Serum-free medium (GlutaMax, P/S, Stem Pro-34 medium containing 10 ng/ml mIL-3, ng/mL mSCF and 10 ng/mL human Oncostatin M) was used as a culture medium.
For the control group, DMSO was added thereto at a final concentration of 0.1% (2 μL/well) (day 0). After culturing for 7 days (day 7), the cells were collected, and blocked with 5% FBS/PBS containing 10% Mouse BD Fc Block (BD) for 10 minutes at room temperature, and then any of various antibodies (Gr-1-FITC or CD117 (cKit)-APC: Biolegend) was added thereto at a final concentration of 0.4 μg/sample, and the mixture was reacted on ice for 30 minutes. Then, dead cell staining dye DAPI (0.2 mg/mL) was added thereto at so as to be […], and the reaction was carried out on ice for additional 2 minutes under shading. Then, the expression level of each surface antigen of the cells was measured by NovoCyte flow cytometer (LMS). The obtained data were analyzed by FlowJo software (Becton Dickinson), and the rate of each surface antigen-expressing cells in the living cells excluding dead cells was graphed.

MV-4-11 cells [6] = test: Antitumor activity in MV-4-11 cell subcutaneous transplant model (Experimental Example 3-2); assay type: in vivo, mice; details: Exp. Ex. 3-2, oral, 34 days after transplantation
Method: (§1) MV-4-11 cells were purchased from ATCC. The female FOX CHASE SCID C.B.17/Icr-scid/scidJcl mice were purchased from Claire Japan. […] The compound was administered as a suspension in 0.5% MC. For the compound-free group, 0.5% MC was administered as a solvent. The estimated individual tumor volume was measured from the day of the grouping to 34 days after the transplantation (test end date).
(§2) Tumor growth inhibitory rate %=(1−TVCt/TVCc)×100 TVC=(Individual tumor volume on the test end date)−(Individual tumor volume on the grouping date) TVCt: TVC mean value of the compound administration group TVCc: TVC mean value of the compound-free group

MV-4-11 cells [7] = test: Antitumor activity in MV-4-11 cell subcutaneous transplant model (Experimental Example 3-4); assay type: in vivo, mice; details: Exp. Ex. 3-4, oral, 32 days after transplantation
Method: as §1, with “32” for “34”
as §2

OCI-AML3 cells = test: cells; details: Homo sapiens, OCI-AML-3, 168 h, read-out: GI50 (nM) Day 7
MV-4-11 cells [8] = test: cells; details: Homo sapiens, MV4-11, 168 h, read-out: GI50, cell growth inhibitory activity, MV-4-11, day 7
MOLM-13 cells = test: Cell growth inhibitory activity, MOLM-13 cells (Experimental Example 7, 96-well); assay type: cell-based; details: Homo sapiens, 168 h, day 7, Sigmoid Emax model
Method: (§3) A solution of each concentration (MV-4-11 and MOLM-13: common ratio of 3, 9 concentrations from the final concentration of 1 μM, K562: common ratio of 3, 9 concentrations from the final concentration of 10 μM) of a drug (the compound of Example 131) or a growth medium containing 0.2% DMSO was added to each well at 50 μL/well, and the cells were cultured for additional 7 days.

K562 cells [9] = test: Cell growth inhibitory activity, K562 cells (Experimental Example 7, 96-well); assay type: cell-based; details: Homo sapiens, 168 h, day 7, linear regression
Method: as §3

MV-4-11 cells [10] = test: Cell growth inhibitory activity, MV-4-11 cells (Experimental Example 7, 96-well); assay type: cell-based; details: Homo sapiens, MV4-11, 168 h, day 7, Sigmoid Emax model
Method: as §3

GI50 (MV-4-11 cells [1]): 728 nM | pIC50 [2]: 7.74 | GI50 (K562 cells [3]): > 5000 nM
SMILES: COc1nc(N(C)C2CC(NCC3CCC(c4cc(OC)c(OC)nn4)CC3)CC2O)c2cc(CC(F)(F)F)sc2n1 (single isomer, unassigned) [Example 128A, Hydrochloride]

GI50 (K562 cells [4]): > 5000 nM | pIC50 [2]: 8.18
SMILES: COc1nc(N(C)C2CC(NCC3CCC(c4cc(OC)c(OC)nn4)CC3)CC2O)c2cc(CC(F)(F)F)sc2n1 (single isomer, unassigned) [Example 128B, Hydrochloride]

SMILES: COc1cc(-c2ccc(CN[C@H]3C[C@@H](O)[C@@H](N(C)c4ncnc5sc(CC(F)(F)F)cc45)C3)cc2)nnc1OC [Example 25, (1R,2S,4R)-4-({[4-(5,6-dimethoxypyridazin-3-yl)phenyl]methyl}amino)-2-{methyl[6-(2,2,2-trifluoroethyl)thieno[2,3-d]pyrimidin-4-yl]amino}cyclopentan-1-ol Hydrochloride]
rate of the myeloid cell differentiation antigen Gr-1-expressing cells in living cells ([5]; versus control group (FIG. 10)): increased the rate of Gr-1-positive cells | rate of the cKit-expressing cells in living cells ([5]; versus control group (FIG. 11)): reduced the rate of cKit-positive cells | Estimated tumor volume (test end date) Mean ± S.E. (MV-4-11 cells [6]; qdx18, 25 mg/kg/day): 250 ± 38 | Estimated tumor volume (test end date) Mean ± S.E. (MV-4-11 cells [6]; qdx18, 50 mg/kg/day): 0 ± 0 | Estimated tumor volume (test end date) Mean ± S.E. (MV-4-11 cells [6]; qdx18, 100 mg/kg/day): 0 ± 0

SMILES: COc1cc(-c2ccc(CN[C@H]3C[C@@H](O)[C@@H](N(C)c4ncnc5sc(CC(F)(F)F)cc45)C3)cc2)cnc1C.Cl [Example 60, (1R,2S,4R)-4-({[4-(5-methoxy-6-methylpyridin-3-yl)phenyl]methyl}amino)-2-{methyl[6-(2,2,2-trifluoroethyl)thieno[2,3-d]pyrimidin-4-yl]amino}cyclopentan-1-ol hydrochloride]
IC50 ([2]; cell free IC50 (nM)): 2.4 nM | Estimated tumor volume (test end date) Mean ± S.E. (MV-4-11 cells [7]; qdx16, 25 mg/kg/day): 558 ± 79 | Estimated tumor volume (test end date) Mean ± S.E. (MV-4-11 cells [7]; qdx16, 50 mg/kg/day): 25 ± 11 | Estimated tumor volume (test end date) Mean ± S.E. (MV-4-11 cells [7]; qdx16, 100 mg/kg/day): 0 ± 0

SMILES: COc1cc(-c2ccc(CN[C@H]3C[C@@H](O)[C@@H](N(C)c4ncnc5sc(CC(F)(F)F)cc45)C3)cc2)cnc1OC.Cl [Example 67, (1R,2S,4R)-4-({[4-(5,6-dimethoxypyridin-3-yl)phenyl]methyl}amino)-2-{methyl[6-(2,2,2-trifluoroethyl)thieno[2,3-d]pyrimidin-4-yl]amino}cyclopentan-1-ol hydrochloride]
pIC50 [2]: 8.68 | Estimated tumor volume (test end date) Mean ± S.E. (MV-4-11 cells [7]; qdx16, 25 mg/kg/day): 896 ± 56 | Estimated tumor volume (test end date) Mean ± S.E. (MV-4-11 cells [7]; qdx16, 50 mg/kg/day): 381 ± 59 | Estimated tumor volume (test end date) Mean ± S.E. (MV-4-11 cells [7]; qdx16, 100 mg/kg/day): 0 ± 0

SMILES: COc1nc(N(C)[C@H]2C[C@@H](NCc3ccc(-c4cc(OC)c(OC(F)F)nn4)cc3)C[C@H]2O)c2cc(CC(F)(F)F)sc2n1 [Example 119, (1R,2S,4R)-4-[({4-[6-(difluoromethoxy)-5-methoxypyridazin-3-yl]phenyl}methy)amino]-2-{[2-methoxy-6-(2,2,2-trifluoroethyl)thieno[2,3-d]pyrimidin-4-yl](methyl)amino}cyclopentan-1-ol hydrochloride]
GI50 (OCI-AML3 cells): 33 nM | pIC50 [2]: 9.15 | GI50 (MV-4-11 cells [8]): 15.7 nM | GI50 (K562 cells [3]): 859 nM

SMILES: COc1cc(-c2ccc(CN[C@H]3C[C@@H](O)[C@@H](N(C)c4ncnc5sc(CC(F)(F)F)cc45)C3)cc2)nnc1OC [Example 131, (1R,2S,4R)-4-({[4-(5,6-dimethoxypyridazin-3-yl)phenyl]methyl}amino)-2-{methyl[6-(2,2,2-trifluoroethyl)thieno[2,3-d]pyrimidin-4-yl]amino}cyclopentan-1-ol Succinate]
GI50 (MOLM-13 cells): 10.1 nM | GI50 (K562 cells [9]): 9110 nM | GI50 (MV-4-11 cells [10]): 1.97 nM
